How the values were obtained:
Assay type in all cases: cell-based
SR = assay: NCI 60 cell line screen (SRB), Leukemia
EKVX = assay: NCI 60 cell line screen (SRB), Non-Small Cell Lung Cancer
NCI-H23 = assay: as above
HCT-15 = assay: NCI 60 cell line screen (SRB), Colon Cancer
KM12 = assay: NCI 60 cell line screen (SRB), Colon Cancer
SW-620 = assay: NCI 60 cell line screen (SRB), Colon Cancer
HCC-2998 = assay: NCI 60 cell line screen (SRB), Colon Cancer
SF-268 = assay: NCI 60 cell line screen (SRB), CNS Cancer
SF-295 = assay: NCI 60 cell line screen (SRB), CNS Cancer
SNB-19 = assay: NCI 60 cell line screen (SRB), CNS Cancer
SNB-75 = assay: NCI 60 cell line screen (SRB), CNS Cancer
MALME-3M = assay: NCI 60 cell line screen (SRB), Melanoma
SK-MEL2 = assay: NCI 60 cell line screen (SRB), Melanoma
IGROVI = assay: NCI 60 cell line screen (SRB), Ovarian Cancer
OVCAR-3 = assay: NCI 60 cell line screen (SRB), Ovarian Cancer; conditions: PG=0
OVCAR-4 = assay: NCI 60 cell line screen (SRB), Ovarian Cancer
OVCAR-8 = assay: NCI 60 cell line screen (SRB), Ovarian Cancer
SK-OV-3 = assay: NCI 60 cell line screen (SRB), Ovarian Cancer
786-0 = assay: NCI 60 cell line screen (SRB), Renal Cancer
ACHN = assay: NCI 60 cell line screen (SRB), Renal Cancer
SN12C = assay: NCI 60 cell line screen (SRB), Renal Cancer
TK-10 = assay: NCI 60 cell line screen (SRB), Renal Cancer
MCF7 = assay: NCI 60 cell line screen (SRB), Breast Cancer
NCI/ADR-RES = assay: NCI 60 cell line screen (SRB), Breast Cancer
[1] = test system: MB231/ATCC (second line of the wrapped label, with values of its own); assay: NCI 60 cell line screen (SRB), Breast Cancer
HS 578T = assay: NCI 60 cell line screen (SRB), Breast Cancer
MDA-MB-435 = assay: NCI 60 cell line screen (SRB), Breast Cancer

Compound `CC1=C(C=Cc2cccc(C=CC3=C(C)C4CCC(C)C5CCC6(C)OOC45C(O3)O6)c2)OC2OC3(C)CCC4C(C)CCC1C24OO3` (stereo not drawn) [VII-g] has a Log10TGI (SR; PG=0) of −7.42 log10M, a Log10GI50 (SR; PG=+50) of −7.42 log10M and a Log10GI50 (SR; Table IV (LC50, PG=−50)) of over −4.00 log10M. The Log10TGI (EKVX; PG=0) was over −4.00 log10M, the Log10GI50 (EKVX; PG=+50) was −7.17 log10M and the Log10GI50 (EKVX; Table IV (LC50, PG=−50)) was over −4.00 log10M. The Log10TGI (NCI-H23; PG=0) was −4.06 log10M, the “log10 GI50 or LC50 (see conditions)” value (NCI-H23; PG=+50) was −5.92 log10M and the “log10 GI50 or LC50 (see conditions)” value (NCI-H23; Table IV (LC50, PG=−50)) was over −4.00 log10M. The Log10TGI (HCT-15; PG=0) was −4.88 log10M, the “log10 GI50 (PG=+50) or LC50 (PG=−50), per row condition” value (HCT-15; PG=+50) was −7.05 log10M and the “log10 GI50 (PG=+50) or LC50 (PG=−50), per row condition” value (HCT-15; Table IV (LC50, PG=−50)) was over −4.00 log10M. It also gave a Log10TGI (KM12; PG=0) of over −4.00 log10M, a Log10GI50 (KM12; PG=+50) of −7.27 log10M and a Log10GI50 (KM12; Table IV (LC50, PG=−50)) of over −4.00 log10M. For the same compound, the Log10TGI (SW-620; PG=0) was over −4.00 log10M, the Log10GI50 (SW-620; PG=+50) was −7.22 log10M and the Log10TGI (HCC-2998; PG=0) was over −4.00 log10M. It also gave a Log10GI50 (HCC-2998; PG=+50) of −6.12 log10M, a Log10TGI (SF-268; PG=0) of over −4.00 log10M and a Log10GI50 (SF-268; PG=+50) of −6.42 log10M. The Log10TGI (SF-295; PG=0) was over −4.00 log10M, the Log10GI50 (SF-295; PG=+50) was −6.48 log10M and the Log10TGI (SNB-19; PG=0) was over −4.00 log10M. The “Log10GI50 or Log10LC50 (see condition)” value (SNB-19; PG=+50) was −6.48 log10M, the “Log10GI50 or Log10LC50 (see condition)” value (SNB-19; Table IV (LC50, PG=−50)) was over −4.00 log10M and the “Log10 GI50 (PG=+50) or LC50 (PG=−50)” value (SNB-75; PG=+50) was −6.45 log10M. For the same compound, the “Log10 GI50 (PG=+50) or LC50 (PG=−50)” value (SNB-75; Table IV (LC50, PG=−50)) was over −4.00 log10M, the Log10TGI (MALME-3M; PG=0) was −4.24 log10M and the Log10GI50 (MALME-3M; PG=+50) was −6.60 log10M. For the same compound, the Log10GI50 (MALME-3M; Table IV (LC50, PG=−50)) was over −4.00 log10M, the Log10TGI (SK-MEL2; PG=0) was over −4.00 log10M and the “Log10 GI50 or LC50 (per conditions)” value (SK-MEL2; PG=+50) was −6.39 log10M. The “Log10 GI50 or LC50 (per conditions)” value (SK-MEL2; Table IV (LC50, PG=−50)) was over −4.00 log10M, the Log10TGI (IGROVI; PG=0) was −4.21 log10M and the Log10GI50 (IGROVI; PG=+50) was −5.16 log10M. For the same compound, the Log10GI50 (IGROVI; Table IV (LC50, PG=−50)) was over −4.00 log10M, the Log10TGI (OVCAR-3) was over −4.00 log10M and the Log10GI50 (OVCAR-4; OVCAR-4, PG=+50) was −6.96 log10M. It also gave a Log10GI50 (OVCAR-4; Table IV (LC50, PG=−50), OVCAR−4) of over −4.00 log10M, a Log10TGI (OVCAR-8; PG=0) of over −4.00 log10M and a Log10GI50 (OVCAR-8; PG=+50) of −6.70 log10M. For the same compound, the Log10GI50 (OVCAR-8; Table IV (LC50, PG=−50)) was over −4.00 log10M, the Log10TGI (SK-OV-3; PG=0) was over −4.00 log10M and the Log10GI50 (SK-OV-3; PG=+50) was −5.05 log10M. For the same compound, the Log10GI50 (SK-OV-3; Table IV (LC50, PG=−50)) was over −4.00 log10M, the Log10TGI (786-0; PG=0) was over −4.00 log10M and the Log10GI50 (786-0; PG=+50) was −6.10 log10M. For the same compound, the Log10GI50 (786-0; Table IV (LC50, PG=−50)) was over −4.00 log10M, the Log10TGI (ACHN; PG=0) was over −4.00 log10M and the “Log10 GI50 or LC50 (see conditions)” value (ACHN; PG=+50) was −6.37 log10M. The “Log10 GI50 or LC50 (see conditions)” value (ACHN; Table IV (LC50, PG=−50)) was over −4.00 log10M, the Log10TGI (SN12C; SN12C, PG=0) was over −4.00 log10M and the Log10GI50 (SN12C; SNI2C, PG=+50) was −6.69 log10M. For the same compound, the Log10GI50 (SN12C; Table IV (LC50, PG=−50), SN12C) was over −4.00 log10M, the Log10TGI (TK-10; PG=0) was over −4.00 log10M and the Log10GI50 (TK-10; PG=+50) was −6.48 log10M. The Log10GI50 (TK-10; Table IV (LC50, PG=−50)) was over −4.00 log10M, the Log10TGI (MCF7; PG=0) was over −4.00 log10M and the Log10GI50 (MCF7; PG=+50) was −6.63 log10M. For the same compound, the Log10GI50 (MCF7; Table IV (LC50, PG=−50)) was over −4.00 log10M, the Log10TGI (NCI/ADR-RES; PG=0) was over −4.00 log10M and the Log10GI50 (NCI/ADR-RES; PG=+50) was −5.27 log10M. It also gave a Log10GI50 (NCI/ADR-RES; Table IV (LC50, PG=−50)) of over −4.00 log10M, a Log10GI50 ([1]; PG=+50) of −7.10 log10M and a Log10GI50 ([1]; Table IV (LC50, PG=−50)) of over −4.00 log10M. For the same compound, the Log10TGI (HS 578T; PG=0) was −4.32 log10M, the Log10GI50 (HS 578T; PG=+50) was −7.14 log10M and the Log10GI50 (HS 578T; Table IV (LC50, PG=−50)) was over −4.00 log10M. The Log10TGI (MDA-MB-435; MDA-MB-435, PG=0) was over −4.00 log10M, the Log10GI50 (MDA-MB-435; MDA-MB−435, PG=+50) was −6.57 log10M and the Log10GI50 (MDA-MB-435; Table IV (LC50, PG=−50), MDA-MB-435) was over −4.00 log10M.
